{"source": "paper PMC8113459", "about": "“Selective inhibition of cullin 3 neddylation through covalent targeting DCN1 protects mice from acetaminophen-induced liver toxicity” (Nature Communications, 2021)", "key": {"[1]": {"system": "neddylation of cullin 3", "experiment": "Western blot, cullin 3 neddylation in cells of different tissue types (U2OS, THLE2, MDA-MB-231, KYSE70, HCT116)", "type": "cell-based, human", "protocol": "(§1) Western blotting was performed as described previously. Treated cells were lysed by RIPA buffer supplemented with protease inhibitor. The expression level of indicated proteins was examined by immunoblotting analysis and GAPDH was used as the loading control. Antibodies were purchased commercially: cullin 1 (sc-17775, 1:500 dilution) and cullin 2 (sc-166506, 1:500 dilution) from Santa Cruz Biotech (Santa Cruz, CA); cullin 4A (PA5-14542, 1:1000 dilution), cullin 4B (PA5-50647, 1:1000 dilution), and DCN3 (DCUN1D3, PA5-44000, 1:1000 dilution) from Thermo Fisher Scientific (Wayne, MI); cullin 3 (2759, 1:1000), NRF2 (12721, 1:1000 dilution), HO-1 (70081, 1:1000 dilution), and Bim (2819, 1:1000 dilution) from Cell Signaling Technology (Boston, MA); DCN1 (GWB-E3D700, 1:1000 dilution) from GenWay Biotech (San Diego, CA); and cullin 5 (A302-173A, 1:500 dilution) from Bethyl Labs (Montgomery, TX). Results are representative of two independent experiments."}, "[2]": {"system": "MDA-MB-231 cells", "experiment": "Cell viability assay (WST-8), MDA-MB-231", "type": "cell-based, human", "settings": "for cell viability relative to control: replicates", "protocol": "(§2) Cell viability assay was performed as previously described. The effect of DCN1 inhibitors on cell growth was evaluated by a WST-8 [2-(2-methoxy-4-nitrophenyl)-3-(4-nitrophenyl)-5-(2,4-disulfophenyl)-2H-tetrazolium, monosodium salt assay (Dojindo Molecular Technologies, Inc). Cells (2000–3000 cells in each well) were seeded in 96-well tissue culture plates in medium (100 μL) and treated with serial dilution of DCN1 inhibitors for 3 days. At the end of incubation, WST-8 dye (20 μL) was added to each well and incubated for 1–3 h, then the absorbance was measured in a microplate reader (Molecular Devices) at 450 nm. Cell growth inhibition was evaluated as the ratio of the absorbance of the sample to that of the control. The values were inserted into Prism software, and the curves and the EC50 values were produced by Prism software."}, "[3]": {"experiment": "Cell viability assay (WST-8), MDA-MB-231", "type": "cell-based, human", "settings": "human, MDA-MB-231 cells, replicates, read-out: cell viability relative to control", "protocol": "as §2"}, "[4]": {"system": "U2OS cells", "experiment": "Cell viability assay (WST-8), U2OS", "type": "cell-based, human", "settings": "replicates", "protocol": "as §2"}, "[5]": {"experiment": "Cell viability assay (WST-8), U2OS", "type": "cell-based, human", "settings": "human, U2OS cells, replicates, read-out: cell viability relative to control", "protocol": "as §2"}, "[6]": {"system": "NRF2 protein", "experiment": "Western blot, NRF2 protein accumulation in cells", "type": "cell-based, human", "settings": "300 nM", "protocol": "as §1"}, "[7]": {"system": "KYSE70 cells", "experiment": "Cell viability assay (WST-8), KYSE70", "type": "cell-based, human", "settings": "for cell viability relative to control: replicates", "protocol": "as §2"}, "[8]": {"experiment": "Cell viability assay (WST-8), KYSE70", "type": "cell-based, human", "settings": "human, KYSE70 cells, replicates, read-out: cell viability relative to control", "protocol": "as §2"}, "[9]": {"system": "HCT116 cells", "experiment": "Cell viability assay (WST-8), HCT116", "type": "cell-based, human", "settings": "for cell viability relative to control: replicates", "protocol": "as §2"}, "[10]": {"experiment": "Cell viability assay (WST-8), HCT116", "type": "cell-based, human", "settings": "human, HCT116 cells, replicates, read-out: cell viability relative to control", "protocol": "as §2"}, "[11]": {"target": "T1, DCN1 (Homo sapiens, UniProt Q96GG9)", "T1 sequence (Q96GG9 whole entry)": "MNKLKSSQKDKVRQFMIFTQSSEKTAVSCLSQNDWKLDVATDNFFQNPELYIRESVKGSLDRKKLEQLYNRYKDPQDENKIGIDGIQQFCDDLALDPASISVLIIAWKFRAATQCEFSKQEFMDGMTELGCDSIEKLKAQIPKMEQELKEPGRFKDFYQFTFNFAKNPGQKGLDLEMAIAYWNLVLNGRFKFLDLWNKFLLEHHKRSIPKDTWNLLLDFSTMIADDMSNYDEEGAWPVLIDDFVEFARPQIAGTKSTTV", "experiment": "Competitive FP binding assay", "protocol": "Competitive FP binding assay was performed as previously described. The IC50 and Ki values of DI-1548 and DI-1548DD were determined in competitive binding experiments. Mixtures of preincubated protein/probe complex solution in the assay buffer (196 μL) and compounds in DMSO (4 μL) were added into assay plates which were incubated at room temperature for 30 min with gentle shaking. The concentrations of DCN1 protein and fluorescent probe were 50 and 5 nM, respectively. […] FP values in millipolarization units were measured using the Infinite M-1000 plate reader (Tecan U.S., Research Triangle Park, NC) in Microfluor 1 96-well, black, round-bottom plates (Thermo Fisher Scientific, Waltham, MA) at an excitation wavelength of 485 nm and an emission wavelength of 530 nm. IC50 values were determined by nonlinear regression fitting of the competition curves using the dose–response inhibition equation (four parameters, variable slopes) included in the Prism/GraphPad software. Ki values were calculated using methods described previously."}, "[12]": {"target": "T1, DCN1", "experiment": "Intact-protein mass spectrometric analysis, Method B (DCN1)", "type": "binding", "settings": "3 h incubation, 100 nM protein", "protocol": "Method B: Recombinant DCN1 or DCN3 protein (100 nM in 25 mM Tris 7.5, 200 mM NaCl, 1 mM DTT buffer) was incubated with 1.2-fold excess of the DCN1 inhibitors at 37 °C for 10 min, 1 h, or 3 h. Following incubation, the protein was analyzed by LC–MS (Agilent Q-TOF 6545) under the following conditions: fragmentor voltage, 300 V; skimmer voltage, 75 V; nozzle voltage, 100 V; sheath gas temperature, 350 °C; and drying gas temperature, 325 °C. MassHunter Qualitative Analysis software (Agilent) was used to analyze the data. Intact protein masses were obtained using the maximum entropy deconvolution algorithm. The mass spectrometry data in Supplementary Figs. 14–17 were generated by Method B."}}, "note": "“And” between values parts separate entries of the source, which are not always exact repeats. Equal entries are not always repeated.", "data": [{"compound": "C=C(CN1CCOCC1)C(=O)NC[C@H](NC(=O)[C@@H](Cc1nc2ccc(C(C)C)cc2s1)NC(=O)CC)C1CCCCC1", "note": "[DI-1548DD]", "values": [{"measurement": "times less potent than DI-1548 and DI-1859, respectively, on cullin 3 neddylation", "setting": "[1]", "value": "> 300", "unit": "times"}, {"measurement": "effect on the neddylation of cullin 3", "setting": "[1]; 100–300 nM", "value": "no significant effect"}, {"measurement": "EC50", "setting": "[2]; Homo sapiens, MDA-MB-231, 72 h, cell line assigned from panel order, read-out: EC50, cell growth inhibition", "value": "> 1000", "unit": "nM"}, {"measurement": "cell viability relative to control", "setting": "[2]; conc 10, 72 h", "value": "111.264 and 113.448"}, {"measurement": "cell viability relative to control", "setting": "[2]; conc 30, 72 h", "value": "102.295 and 109.77"}, {"measurement": "cell viability relative to control", "setting": "[2]; conc 100, 72 h", "value": "112.459 and 97.8161"}, {"measurement": "cell viability relative to control", "setting": "[2]; conc 300, 72 h", "value": "97.7869 and 103.793"}, {"measurement": "cell viability relative to control", "setting": "[2]; conc 1000, 72 h", "value": "105.329 and 127.049 and 101.954"}, {"measurement": "viability at 72 h", "setting": "[3]; conc 10, 72 h", "value": 93.6, "unit": "%"}, {"measurement": "viability at 72 h", "setting": "[3]; conc 30, 72 h", "value": 108, "unit": "%"}, {"measurement": "viability at 72 h", "setting": "[3]; conc 100, 72 h", "value": 104, "unit": "%"}, {"measurement": "viability at 72 h", "setting": "[3]; conc 300, 72 h", "value": 104, "unit": "%"}, {"measurement": "cell viability relative to control", "setting": "[4]; conc 10, 72 h", "value": "109.342 and 93.2895 and 98.1579"}, {"measurement": "cell viability relative to control", "setting": "[4]; conc 30, 72 h", "value": "118.158 and 95.5263 and 92.6316"}, {"measurement": "cell viability relative to control", "setting": "[4]; conc 100, 72 h", "value": "108.684 and 93.421 and 101.974"}, {"measurement": "cell viability relative to control", "setting": "[4]; conc 300, 72 h", "value": "103.684 and 90.921 and 92.2368"}, {"measurement": "cell viability relative to control", "setting": "[4]; conc 1000, 72 h", "value": "95.1316 and 97.1053 and 98.2895"}, {"measurement": "viability at 72 h", "setting": "[5]; conc 10, 72 h", "value": 90.3, "unit": "%"}, {"measurement": "viability at 72 h", "setting": "[5]; conc 1000, 72 h", "value": 87.9, "unit": "%"}, {"measurement": "accumulation of NRF2 protein", "setting": "[6]", "value": "no obvious accumulation"}, {"measurement": "EC50", "setting": "[7]; Homo sapiens, KYSE-70, 72 h, cell line assigned from panel order, read-out: EC50, cell growth inhibition", "value": "> 1000", "unit": "nM"}, {"measurement": "cell viability relative to control", "setting": "[7]; conc 10, 72 h", "value": "101.942 and 101.216"}, {"measurement": "cell viability relative to control", "setting": "[7]; conc 30, 72 h", "value": "111.396 and 109.174 and 90.4505"}, {"measurement": "cell viability relative to control", "setting": "[7]; conc 100, 72 h", "value": "115.736 and 126.65 and 80.7614"}, {"measurement": "cell viability relative to control", "setting": "[7]; conc 300, 72 h", "value": "86.0914 and 84.7716"}, {"measurement": "cell viability relative to control", "setting": "[7]; conc 1000, 72 h", "value": "63.3503 and 88.731 and 70.4569"}, {"measurement": "viability at 72 h", "setting": "[8]; conc 10, 72 h", "value": 98.7, "unit": "%"}, {"measurement": "viability at 72 h", "setting": "[8]; conc 300, 72 h", "value": 88, "unit": "%"}, {"measurement": "EC50", "setting": "[9]; Homo sapiens, HCT-116, 72 h, cell line assigned from panel order, read-out: EC50, cell growth inhibition", "value": "> 1000", "unit": "nM"}, {"measurement": "cell viability relative to control", "setting": "[9]; conc 3, 72 h", "value": "101.869 and 103.551"}, {"measurement": "cell viability relative to control", "setting": "[9]; conc 10, 72 h", "value": "94.2056 and 90"}, {"measurement": "cell viability relative to control", "setting": "[9]; conc 30, 72 h", "value": "80.7477 and 101.215 and 108.939"}, {"measurement": "cell viability relative to control", "setting": "[9]; conc 100, 72 h", "value": "96.6355 and 107.727"}, {"measurement": "cell viability relative to control", "setting": "[9]; conc 300, 72 h", "value": "79.5327 and 97.5701 and 109.546"}, {"measurement": "cell viability relative to control", "setting": "[9]; conc 1000, 72 h", "value": "96.8224 and 90.3738"}, {"measurement": "viability at 72 h", "setting": "[10]; conc 3, 72 h", "value": 96.9, "unit": "%"}, {"measurement": "viability at 72 h", "setting": "[10]; conc 10, 72 h", "value": 107, "unit": "%"}, {"measurement": "viability at 72 h", "setting": "[10]; conc 100, 72 h", "value": 87.8, "unit": "%"}, {"measurement": "viability at 72 h", "setting": "[10]; conc 1000, 72 h", "value": 79.7, "unit": "%"}, {"measurement": "times less potent than DI-1548 in binding to DCN1", "setting": "[11]", "value": "> 1000", "unit": "times"}, {"measurement": "FP signal of the competitive binding curve", "setting": "[11]; Concentration (nM) 0.169351, duplicates", "value": "48.4 and 48"}, {"measurement": "FP signal of the competitive binding curve", "setting": "[11]; Concentration (nM) 0.508053, duplicates", "value": "47 and 44.7"}, {"measurement": "FP signal of the competitive binding curve", "setting": "[11]; Concentration (nM) 1.52416, duplicates", "value": "42.8 and 45.5"}, {"measurement": "FP signal of the competitive binding curve", "setting": "[11]; Concentration (nM) 4.57247, duplicates", "value": "46.4 and 45.6"}, {"measurement": "FP signal of the competitive binding curve", "setting": "[11]; Concentration (nM) 13.7174, duplicates", "value": 45.7}, {"measurement": "FP signal of the competitive binding curve", "setting": "[11]; Concentration (nM) 41.1523, duplicates", "value": "43.9 and 44.9"}, {"measurement": "FP signal of the competitive binding curve", "setting": "[11]; Concentration (nM) 123.457, duplicates", "value": "43.5 and 44.2"}, {"measurement": "FP signal of the competitive binding curve", "setting": "[11]; Concentration (nM) 370.37, duplicates", "value": "42.9 and 41.1"}, {"measurement": "FP signal of the competitive binding curve", "setting": "[11]; Concentration (nM) 1111.11, duplicates", "value": "36.2 and 35.7"}, {"measurement": "FP signal of the competitive binding curve", "setting": "[11]; Concentration (nM) 3333.33, duplicates", "value": "28.3 and 29.7"}, {"measurement": "FP signal of the competitive binding curve", "setting": "[11]; Concentration (nM) 10000, duplicates", "value": "20.5 and 22.6"}, {"measurement": "IC50", "setting": "[11]; DCN1 50 nM, probe 5 nM, 30 min", "value": 2880, "unit": "nM"}, {"measurement": "covalent complex formation with DCN1", "setting": "[12]", "value": "fails to form any detectable complex"}]}]}
